We go through 14 molecules from ChEMBL document CHEMBL2029299, “Discovery of novel EGFR tyrosine kinase inhibitors by structure-based virtual screening” (Bioorg Med Chem Lett, 2012).

Molecules are shown by their SMILES.

Assay [1] has as its target Epidermal growth factor receptor (Homo sapiens, UniProt P00533). Description: Inhibition of EGFR after 50 mins by HTRF assay. For orientation: In TR-FRET formats the signal depends on donor and acceptor labels being close together.
The next assay has as its system A-431. Briefly: Antiproliferative activity against human A431 cells overexpressing EGFR after 72 hrs by MTT assay. Particulars: A-431, 72 h.
The subject of another assay is NIH3T3. Description: Antiproliferative activity against mouse NIH/3T3 cells after 72 hrs by MTT assay. The note with it: NIH3T3, 72 h. On the technique in general: Tetrazolium dyes change colour on reduction, which living cells bring about.

Chain of Epidermal growth factor receptor (P00533 whole entry): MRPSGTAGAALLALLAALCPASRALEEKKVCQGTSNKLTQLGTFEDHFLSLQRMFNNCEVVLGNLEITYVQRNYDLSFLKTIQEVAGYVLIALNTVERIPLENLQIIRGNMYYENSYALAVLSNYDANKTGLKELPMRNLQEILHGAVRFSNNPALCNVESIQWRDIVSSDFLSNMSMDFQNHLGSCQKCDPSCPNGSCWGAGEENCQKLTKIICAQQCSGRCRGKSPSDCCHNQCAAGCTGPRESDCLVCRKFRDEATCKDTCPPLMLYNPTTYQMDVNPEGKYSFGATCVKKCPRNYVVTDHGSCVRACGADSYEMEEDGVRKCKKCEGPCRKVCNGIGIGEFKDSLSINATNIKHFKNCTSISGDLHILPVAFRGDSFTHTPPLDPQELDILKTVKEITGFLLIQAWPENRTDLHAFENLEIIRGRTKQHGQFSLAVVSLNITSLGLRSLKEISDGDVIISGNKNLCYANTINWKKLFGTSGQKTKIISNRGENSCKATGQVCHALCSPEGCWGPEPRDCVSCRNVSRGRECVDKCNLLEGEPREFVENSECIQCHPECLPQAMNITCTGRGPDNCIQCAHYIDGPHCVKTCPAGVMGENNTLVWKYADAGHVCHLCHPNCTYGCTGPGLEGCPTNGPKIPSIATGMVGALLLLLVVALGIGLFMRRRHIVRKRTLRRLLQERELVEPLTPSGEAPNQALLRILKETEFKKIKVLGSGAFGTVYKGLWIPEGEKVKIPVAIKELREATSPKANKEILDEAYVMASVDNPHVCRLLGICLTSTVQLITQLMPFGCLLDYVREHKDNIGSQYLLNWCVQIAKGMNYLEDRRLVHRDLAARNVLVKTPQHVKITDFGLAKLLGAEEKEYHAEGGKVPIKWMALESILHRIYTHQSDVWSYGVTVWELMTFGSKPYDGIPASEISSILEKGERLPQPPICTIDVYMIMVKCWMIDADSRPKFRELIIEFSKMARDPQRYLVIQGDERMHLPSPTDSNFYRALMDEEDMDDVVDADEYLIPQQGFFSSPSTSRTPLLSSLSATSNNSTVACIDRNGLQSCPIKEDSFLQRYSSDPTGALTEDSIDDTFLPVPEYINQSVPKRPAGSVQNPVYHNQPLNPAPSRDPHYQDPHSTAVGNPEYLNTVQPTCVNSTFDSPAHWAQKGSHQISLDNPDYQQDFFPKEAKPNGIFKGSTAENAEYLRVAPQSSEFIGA

`CCOc1ccc(-c2cc(C(F)(F)F)c(C#N)c(SCC(=O)NCC(=O)O)n2)cc1`: the half-inhibitory concentration (IC50) is 8.4 µM in assay [1], > 50 µM with A-431 and > 50 µM in the assay with NIH3T3.

As for `Cn1c(NCc2cccc(C(F)(F)F)c2)cc(=O)n(C)c1=O`, the IC50 was 83.9 µM in assay [1], > 50 µM in the assay with A-431 and > 50 µM in the assay with NIH3T3.

Take `O=C1NN(c2ccc(F)cc2)C(=O)/C1=C\c1cccc(OCc2ccccc2F)c1`: the IC50 in assay [1] came out at 5.6 µM; in the assay on A-431, 18.9 µM; in the assay with NIH3T3, 23.1 µM.

`O=C1NN(c2ccc(F)c(Cl)c2)C(=O)/C1=C\c1cccc(OC(=O)c2cccs2)c1`: the IC50 came to 3.5 µM in assay [1], 23.2 µM in the assay on A-431 and 28.2 µM in the assay on NIH3T3.

Consider `Nc1nn2c(=O)cc(-c3ccccc3)[nH]c2c1/N=N/c1ccc2c(c1)OCO2`, for which the IC50 was 5.3 µM in assay [1], 16.7 µM with A-431 and 46 µM in the assay with NIH3T3.

In the assay with NIH3T3, `Cc1ccc(N2NC(=O)/C(=C\c3ccc(-c4cc([N+](=O)[O-])ccc4O)o3)C2=O)cc1C` displayed an IC50 of 37.2 µM.

For `Cc1cccc(N2NC(=O)/C(=C/c3ccc(-c4ccccc4F)o3)C2=O)c1`, the IC50 was 23.1 µM in assay [1], 30 µM in the assay on A-431 and > 50 µM with NIH3T3.

Consider `Cc1nn(C)cc1C(=O)Nc1ccn(Cc2c(F)cccc2Cl)n1`, for which the IC50 in the assay on NIH3T3 is > 50 µM.

Molecule `CS(=O)(=O)CCNCc1ccc(-c2ccc3ncnc(Nc4ccc(OCc5cccc(F)c5)c(Cl)c4)c3c2)o1` [LAPATINIB] gave an IC50 in the assay on NIH3T3 of 4.3 µM.

For the molecule `O=C(Cc1ccc(F)cc1)Nc1cc(SC[C@@H](O)CO)cc([N+](=O)[O-])c1`, the IC50 is 48.6 µM in assay [1], 26.8 µM in the assay on A-431 and > 50 µM in the assay on NIH3T3.

With `C=C(N/N=C/c1cn[nH]c1-c1ccccc1)[C@H](C)Cc1ccccc1`, the IC50 with NIH3T3 is > 50 µM.

As for `O=S(=O)(c1ccc(/N=C/c2cc(Br)ccc2O)cc1)N1CCCCC1`, the IC50 in assay [1] was 9.7 µM; in the assay on A-431, 39.6 µM; in the assay on NIH3T3, > 50 µM.

With `O=C(Cn1c(-c2ccccc2)cc(=O)n2ncnc12)NNC(=S)Nc1ccccc1`, the values for the IC50 (in assay [1]; in the assay with A-431; in the assay on NIH3T3) were 6.8 µM, 19.4 µM and 20 µM, respectively.

Take `Cc1ccc(N2NC(=O)/C(=C/c3ccc(OCc4ccccc4)cc3)C2=O)cc1Cl`: the IC50 in assay [1] came to 8.6 µM; in the assay on A-431, 14 µM; in the assay on NIH3T3 it was 41.3 µM.

A word on the IC50: it is the concentration at which inhibition is half-maximal. Read a high IC50 as a need for much substance.
